Measurements from US20080299140A1, “Immunogenic Composition and Peptide Sequences for Prevention and Treatment of an Hsv Condition” (priority 2002, published 2008).
Where two headings read alike, the source gives them in different places.

Columns and labels:
[1] = target: T1, DR1=HLA-DR(α1*0101,α1*0101) (Homo sapiens, UniProt P01903+P01911, A100R/D57E/F55L/F60I/F76Y/I96L/L162R/M171V/P40L/Q125E/R42F/V115G/Y59C); test: biochemical; assay type: binding; settings: […]
T1 construct: endogenous in cells; host or cells: EBV homozygous human B cell line

[2] = target: T2, DR13=HLA-DR(α1*0101,α1*1301) (Homo sapiens, UniProt P01903+P01911, A100E/A169T/K41T/L162R/M171V/P40S/Q125H/Q178H/Q39Y/Q99D/R42S/S66N/T262R/W38E/Y61H); test: HLA-DR specific binding assay, DR13
T2 construct: endogenous in cells; host or cells: 0206AD (EBV homozygous B cell line)

[3] = target: T3, DR15=HLA-DR(α1*0101,α1*1501) (Homo sapiens, UniProt P01903+P01911); test: HLA-DR specific binding assay, DR15
T3 construct: endogenous in cells; host or cells: EBV homozygous human B cell line

[4] = target: T4, DRB4=HLA-DR(α1*0101,α4*0101) (Homo sapiens, UniProt P01903+P13762, G164S); test: HLA-DR specific binding assay, DRB4 (DR53)
T4 construct: endogenous in cells

[5] = target: T5, DP402 DP (α1*0101, α1*0402) (Homo sapiens, UniProt P04440+P20036, A65V/A84D/A85E/L207M); test: biochemical; assay type: binding
T5 sequence (P20036 29-260): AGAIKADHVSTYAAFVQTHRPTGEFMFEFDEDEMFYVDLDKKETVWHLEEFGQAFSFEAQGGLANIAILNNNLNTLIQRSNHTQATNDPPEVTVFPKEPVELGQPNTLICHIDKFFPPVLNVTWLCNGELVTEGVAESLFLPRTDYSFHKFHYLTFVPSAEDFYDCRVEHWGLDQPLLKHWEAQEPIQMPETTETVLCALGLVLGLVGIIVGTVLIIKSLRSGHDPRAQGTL
T5 sequence (P04440 30-258 A65V/A84D/A85E): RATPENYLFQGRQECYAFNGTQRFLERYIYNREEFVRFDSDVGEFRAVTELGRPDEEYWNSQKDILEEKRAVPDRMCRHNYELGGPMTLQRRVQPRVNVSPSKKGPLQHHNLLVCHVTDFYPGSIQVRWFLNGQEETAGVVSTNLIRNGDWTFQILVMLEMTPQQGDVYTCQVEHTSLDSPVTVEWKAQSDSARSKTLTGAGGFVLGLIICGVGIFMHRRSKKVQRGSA

I-E^d molecule = target: T6, I-E^d molecule (Mus musculus, UniProt P01904+P01915); test: Binding to I-E^d molecule; design: species or system mice
T6 sequence (P01904 26-255): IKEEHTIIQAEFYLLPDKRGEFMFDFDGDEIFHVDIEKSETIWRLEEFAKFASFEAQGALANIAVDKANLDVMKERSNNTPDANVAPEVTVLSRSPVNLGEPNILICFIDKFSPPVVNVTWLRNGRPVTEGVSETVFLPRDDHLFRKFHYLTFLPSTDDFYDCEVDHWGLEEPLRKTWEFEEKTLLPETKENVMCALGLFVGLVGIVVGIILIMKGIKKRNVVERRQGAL
T6 sequence (P01915 32-264): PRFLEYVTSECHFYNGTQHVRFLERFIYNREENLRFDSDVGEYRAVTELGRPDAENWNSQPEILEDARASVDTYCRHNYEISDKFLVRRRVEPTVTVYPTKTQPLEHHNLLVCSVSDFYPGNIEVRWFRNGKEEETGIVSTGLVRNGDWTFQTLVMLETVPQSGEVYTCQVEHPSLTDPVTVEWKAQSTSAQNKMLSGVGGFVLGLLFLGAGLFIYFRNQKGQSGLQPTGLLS

T-cells = test: Cytokine analysis (IL-2, IL-4, IFN-γ sandwich ELISA); assay type: cell-based, mice
Description: T-cells were stimulated with either immunizing peptides (10 μg/ml), the irrelevant control peptide (10 μg/ml), UV-inactivated HSV-1 (MOI=3), or with ConA (0.5 μg/ml) as a positive control. Culture media were harvested 48 h (for IL-2) or 96 h (for IL-4 and IFN-γ) later and analyzed by specific sandwich ELISA following the manufacturer's instructions (PharMingen, San Diego, Calif.).

[6] = Class II MHC allele DR1, read-out: IC50, DR1
[7] = read-out: IC50, DR13, Class II MHC allele DR13
[8] = T cells treated with Abs to CD4
[9] = T cells treated with Abs to CD8
[10] = splenocyte derived T cells, no Abs, average of triplicates (+/- SD)

Structure (SMILES)	IC50 ([1]; Table V, read-out: IC50 DR1)	IC50 [1, 6]	IC50 [2]	IC50 [3]	IC50 [4]	IC50 ([5]; Class II MHC allele DP402)	IC50 ([5]; Table V, […])	IC50 [2, 7]	binding to I-E^d molecule (I-E^d molecule)	IFNγ, Anti-CD4 (T-cells; [8])	IL-2, Anti-CD4 (T-cells; [8])	IFNγ, Anti-CD8 (T-cells; [9])	IL-2, Anti-CD8 (T-cells; [9])	IFNγ, None (T-cells; [10])	IL-2, None (T-cells; [10])
CC[C@H](C)[C@H](NC(=O)[C@@H]1CCCN1C(=O)[C@H](CS)NC(=O)[C@H](C)NC(=O)CNC(=O)[C@H](CC(C)C)NC(=O)[C@H](CO)NC(=O)[C@H](CCCCN)NC(=O)[C@@H](N)CC(N)=O)C(=O)N[C@@H](CCCNC(=N)N)C(=O)N[C@H](C(=O)N[C@@H](CCC(N)=O)C(=O)N1CCC[C@H]1C(=O)N[C@@H](CCCNC(=N)N)C(=O)N[C@@H](Cc1c[nH]c2ccccc12)C(=O)N[C@@H](CC(N)=O)C(=O)N[C@@H](Cc1ccc(O)cc1)C(=O)N[C@@H](Cc1ccc(O)cc1)C(=O)N[C@@H](CC(=O)O)C(=O)N[C@@H](CO)C(=O)N[C@@H](Cc1ccccc1)C(=O)N[C@@H](CO)C(=O)N[C@@H](C)C(=O)N[C@H](C(=O)N[C@@H](CO)C(=O)N[C@@H](CCC(=O)O)C(=O)N[C@@H](CC(=O)O)C(=O)N[C@@H](CC(N)=O)C(=O)N[C@@H](CC(C)C)C(=O)NCC(=O)N[C@@H](Cc1ccccc1)C(=O)N[C@@H](CC(C)C)C(=O)O)C(C)C)[C@@H](C)O [HSV 33]	0.053 µM	0.053 µM	0.16 µM	0.002 µM	0.319 µM	0.065 µM	0.065 µM								
CC[C@H](C)[C@H](NC(=O)[C@H](CO)NC(=O)[C@@H]1CCCN1C(=O)[C@@H](NC(=O)[C@H](Cc1c[nH]cn1)NC(=O)[C@H](Cc1c[nH]c2ccccc12)NC(=O)[C@H](CC(N)=O)NC(=O)[C@@H]1CCCN1C(=O)[C@@H]1CCCN1C(=O)[C@@H](NC(=O)[C@H](CCC(N)=O)NC(=O)[C@@H]1CCCN1C(=O)[C@H](C)N)[C@@H](C)CC)[C@@H](C)CC)C(=O)N[C@@H](CCC(N)=O)C(=O)N[C@@H](CC(=O)O)C(=O)N[C@@H](C)C(=O)N[C@@H](C)C(=O)N[C@H](C(=O)N1CCC[C@H]1C(=O)N[C@@H](Cc1ccc(O)cc1)C(=O)N[C@@H](Cc1c[nH]cn1)C(=O)N1CCC[C@H]1C(=O)N1CCC[C@H]1C(=O)N[C@@H](C)C(=O)N[C@H](C(=O)N1CCC[C@H]1C(=O)N[C@@H](CC(N)=O)C(=O)N[C@@H](CC(N)=O)C(=O)N[C@@H](CCSC)C(=O)NCC(=O)N[C@@H](CC(C)C)C(=O)O)[C@@H](C)O)[C@@H](C)O [HSV 35]	3.16 µM	3.16 µM	> 100 µM	6.79 µM	3.26 µM	> 100 µM	> 100 µM	> 100 µM	strong binders						
CC[C@H](C)[C@H](NC(=O)[C@H](CCC(N)=O)NC(=O)[C@@H]1CCCN1C(=O)[C@H](C)NC(=O)[C@H](CCC(=O)O)NC(=O)[C@H](CO)NC(=O)[C@@H]1CCCN1C(=O)[C@H](C)NC(=O)[C@H](CC(N)=O)NC(=O)[C@H](CC(C)C)NC(=O)[C@H](CC(C)C)NC(=O)[C@@H](NC(=O)[C@H](CO)NC(=O)[C@H](CCCNC(=N)N)NC(=O)[C@H](CS)NC(=O)[C@H](C)NC(=O)[C@H](CCCNC(=N)N)NC(=O)[C@H](CCC(=O)O)NC(=O)[C@H](CC(C)C)NC(=O)[C@@H](NC(=O)[C@H](C)NC(=O)[C@H](Cc1ccc(O)cc1)NC(=O)[C@H](Cc1ccc(O)cc1)NC(=O)[C@@H](NC(=O)[C@@H](NC(=O)[C@@H](NC(=O)[C@@H]1CCCN1C(=O)[C@H](CC(C)C)NC(=O)[C@H](CO)NC(=O)[C@@H]1CCCN1C(=O)[C@@H]1CCCN1C(=O)[C@@H](N)CCC(N)=O)[C@@H](C)CC)[C@@H](C)O)C(C)C)C(C)C)C(C)C)C(=O)N[C@H](C(=O)N[C@@H](CCCNC(=N)N)C(=O)O)C(C)C [HSV 36]	0.003 µM	0.003 µM	> 100 µM	0.018 µM		0.098 µM	0.098 µM	> 100 µM		6 (+/−2) ng/ml	22 (+/−2) pg/ml	66 (+/−2) ng/ml	88 (+/−5) pg/ml	60 (+/−4) ng/ml	92 (+/−5) pg/ml
CC[C@H](C)[C@H](NC(=O)[C@H](CO)NC(=O)[C@H](CC(=O)O)NC(=O)[C@@H](NC(=O)[C@@H](NC(=O)[C@@H](NC(=O)CNC(=O)[C@H](CCC(N)=O)NC(=O)[C@H](CCC(N)=O)NC(=O)[C@H](Cc1ccc(O)cc1)NC(=O)[C@H](C)NC(=O)[C@H](CCC(N)=O)NC(=O)[C@@H]1CCCN1C(=O)[C@H](CO)NC(=O)[C@H](CC(C)C)NC(=O)[C@H](CS)NC(=O)[C@H](C)NC(=O)[C@@H](N)CO)C(C)C)[C@@H](C)O)C(C)C)C(=O)NCC(=O)N[C@@H](CCSC)C(=O)N[C@@H](CC(C)C)C(=O)N1CCC[C@H]1C(=O)N[C@@H](CCCNC(=N)N)C(=O)N[C@@H](Cc1ccccc1)C(=O)N[C@H](C(=O)N1CCC[C@H]1C(=O)N[C@@H](CCC(=O)O)C(=O)N[C@@H](CC(N)=O)C(=O)N[C@@H](CCC(N)=O)C(=O)N[C@@H](CCCNC(=N)N)C(=O)N[C@H](C(=O)N[C@H](C(=O)N[C@@H](C)C(=O)N[C@H](C(=O)N[C@@H](Cc1ccc(O)cc1)C(=O)O)C(C)C)C(C)C)[C@@H](C)O)[C@@H](C)CC [HSV 37]	0.004 µM	0.004 µM	2.05 µM	0.013 µM	3.74 µM	0.167 µM	0.167 µM		strong binders						
